In one series the target is T1, CBP (Homo sapiens, UniProt Q92793).
T1 construct: endogenous in cells; host or cells: Kelly neuroblastoma cells (incl. Ch2.2, LACZ and CRBN knockout lines)
As to the kind of experiment: Cellular degradation assay (immunoblot) in Kelly NB cells, CBP. The series is classed as cell-based. The method, then:
Kelly Neuroblastoma cells were seeded at 1,000,000 cells per well in 6 well plates and were treated in a dose-dependent manner for 24 to 72 hours. Whole cell lysates were collected using ice cold lysis buffer [300 mM NaCl, 50 mM Tris-HCl, pH 7.5, 0.5% Triton X-100, 1% SDS, 1 mM dithiothreitol (DTT), Roche® protease inhibitor cocktail (1:000), 25 units/mL Benzonase] and blotted at a protein concentration of 20 μg. Histone extraction was performed using the EpiQuik™ Total Histone Extraction Kit (OP-0006-100, Epigentek) and blotted at a protein concentration of 4 μg.
Whole cell lysates were resolved in NuPAGE® 3-8% Tris-Acetate polyacrylamide gels (EA03785BOX, Invitrogen™) and histone extraction lysates in Bolt 4-12% Bis-Tris polyacrylamide gels (NWO4125BOX, Invitrogen™). Afterwards, gels were transferred to nitrocellulose membranes (LC2001, Invitrogen™). […]
The experimental protocol is the same as in Example 24. The protein level was determined by immunoblot using EP300 antibody, CBP antibody or H3K27ac antibody. […]
For orientation: Immunoblotting shows a protein as a band on a membrane.

The subject of a further series is MM.1S cells. Nature of the series: 6-day MTT assay, MM.1S cells. In kind it is cell-based. The following applies: 0-10 μM. As to the method: Media from cell cultures was discarded. For adherent cells, the media was carefully aspirated. For suspension cells, the 96 well plate at 1,000×g, 4° C., was spun for 5 minutes in a microplate-compatible centrifuge and the media was carefully aspirated. The volume of existing media has to be the same for each sample. Fifty (50) μL of serum-free media and 50 μL of MTT solution were added into each well. The plate was incubated at 37° C. for 3 hours.
After incubation, 150 μL of MTT solvent were added into each well. The plate was wrapped in foil and shaken on an orbital shaker for 15 minutes. Absorbance was read at OD=590 nm. Reading was performed within 1 hour.
In general terms: Tetrazolium dyes change colour on reduction, which living cells bring about.

Another series deals with NB zebra fish model. Nature of the series: NB zebra fish model. In kind it is in vivo. As to the method: Maximum tolerance dose (MTD) of each candidate was determined in zebrafish embryos. 3-day-old zebrafish embryos were exposed to different drug concentrations and monitored for adverse health effects. […] Experiments were first carried out with compound CPD 1 as a guide in the further design of MTD assessment of lead EP300 degraders (FIG. 6B). The MTD of the degrader is also determined in mice in the similar manor. Briefly, mice were dosed with test compounds and blood and plasma is isolated at specific intervals post-administration (0.083, 0.25, 0.5, 1, 2, 4, 8, 12, and 24 h) and quantified for the presence of test article by LC/MS/MS (n=5 mice/compound). In vivo mouse PK experiments were used to determine these parameters and inform iterative rounds of medicinal chemistry for optimization of EP300 degraders (FIG. 6A). As degraders have a relatively large molecular weight, the proper formulation is investigated to increase the solubility and stability of the degraders for in vivo study. Together, these parameters, including the established MTD, are used to guide the in vivo study design, such as administration method, dosing, and schedule for the following experiment. The information obtained was also used to guide the degrader optimization conducted in Example 36.

Series [1] in a line: Tolerability in human CRBN knock in mice. In kind it is in vivo. The method, then:
CPD 1 was tested in mice for maximum tolerated dose (MTD) (FIG. 6A). The mice were treated with 10 mg/kg (mpk), 20 mpk, and 40 mpk with 4 mice in each group. The compound was also tested in human CRBN knock in mice, the blood samples were collected after 21 day treatment. All the tested blood samples were normal.

T1 sequence (Q92793 whole entry): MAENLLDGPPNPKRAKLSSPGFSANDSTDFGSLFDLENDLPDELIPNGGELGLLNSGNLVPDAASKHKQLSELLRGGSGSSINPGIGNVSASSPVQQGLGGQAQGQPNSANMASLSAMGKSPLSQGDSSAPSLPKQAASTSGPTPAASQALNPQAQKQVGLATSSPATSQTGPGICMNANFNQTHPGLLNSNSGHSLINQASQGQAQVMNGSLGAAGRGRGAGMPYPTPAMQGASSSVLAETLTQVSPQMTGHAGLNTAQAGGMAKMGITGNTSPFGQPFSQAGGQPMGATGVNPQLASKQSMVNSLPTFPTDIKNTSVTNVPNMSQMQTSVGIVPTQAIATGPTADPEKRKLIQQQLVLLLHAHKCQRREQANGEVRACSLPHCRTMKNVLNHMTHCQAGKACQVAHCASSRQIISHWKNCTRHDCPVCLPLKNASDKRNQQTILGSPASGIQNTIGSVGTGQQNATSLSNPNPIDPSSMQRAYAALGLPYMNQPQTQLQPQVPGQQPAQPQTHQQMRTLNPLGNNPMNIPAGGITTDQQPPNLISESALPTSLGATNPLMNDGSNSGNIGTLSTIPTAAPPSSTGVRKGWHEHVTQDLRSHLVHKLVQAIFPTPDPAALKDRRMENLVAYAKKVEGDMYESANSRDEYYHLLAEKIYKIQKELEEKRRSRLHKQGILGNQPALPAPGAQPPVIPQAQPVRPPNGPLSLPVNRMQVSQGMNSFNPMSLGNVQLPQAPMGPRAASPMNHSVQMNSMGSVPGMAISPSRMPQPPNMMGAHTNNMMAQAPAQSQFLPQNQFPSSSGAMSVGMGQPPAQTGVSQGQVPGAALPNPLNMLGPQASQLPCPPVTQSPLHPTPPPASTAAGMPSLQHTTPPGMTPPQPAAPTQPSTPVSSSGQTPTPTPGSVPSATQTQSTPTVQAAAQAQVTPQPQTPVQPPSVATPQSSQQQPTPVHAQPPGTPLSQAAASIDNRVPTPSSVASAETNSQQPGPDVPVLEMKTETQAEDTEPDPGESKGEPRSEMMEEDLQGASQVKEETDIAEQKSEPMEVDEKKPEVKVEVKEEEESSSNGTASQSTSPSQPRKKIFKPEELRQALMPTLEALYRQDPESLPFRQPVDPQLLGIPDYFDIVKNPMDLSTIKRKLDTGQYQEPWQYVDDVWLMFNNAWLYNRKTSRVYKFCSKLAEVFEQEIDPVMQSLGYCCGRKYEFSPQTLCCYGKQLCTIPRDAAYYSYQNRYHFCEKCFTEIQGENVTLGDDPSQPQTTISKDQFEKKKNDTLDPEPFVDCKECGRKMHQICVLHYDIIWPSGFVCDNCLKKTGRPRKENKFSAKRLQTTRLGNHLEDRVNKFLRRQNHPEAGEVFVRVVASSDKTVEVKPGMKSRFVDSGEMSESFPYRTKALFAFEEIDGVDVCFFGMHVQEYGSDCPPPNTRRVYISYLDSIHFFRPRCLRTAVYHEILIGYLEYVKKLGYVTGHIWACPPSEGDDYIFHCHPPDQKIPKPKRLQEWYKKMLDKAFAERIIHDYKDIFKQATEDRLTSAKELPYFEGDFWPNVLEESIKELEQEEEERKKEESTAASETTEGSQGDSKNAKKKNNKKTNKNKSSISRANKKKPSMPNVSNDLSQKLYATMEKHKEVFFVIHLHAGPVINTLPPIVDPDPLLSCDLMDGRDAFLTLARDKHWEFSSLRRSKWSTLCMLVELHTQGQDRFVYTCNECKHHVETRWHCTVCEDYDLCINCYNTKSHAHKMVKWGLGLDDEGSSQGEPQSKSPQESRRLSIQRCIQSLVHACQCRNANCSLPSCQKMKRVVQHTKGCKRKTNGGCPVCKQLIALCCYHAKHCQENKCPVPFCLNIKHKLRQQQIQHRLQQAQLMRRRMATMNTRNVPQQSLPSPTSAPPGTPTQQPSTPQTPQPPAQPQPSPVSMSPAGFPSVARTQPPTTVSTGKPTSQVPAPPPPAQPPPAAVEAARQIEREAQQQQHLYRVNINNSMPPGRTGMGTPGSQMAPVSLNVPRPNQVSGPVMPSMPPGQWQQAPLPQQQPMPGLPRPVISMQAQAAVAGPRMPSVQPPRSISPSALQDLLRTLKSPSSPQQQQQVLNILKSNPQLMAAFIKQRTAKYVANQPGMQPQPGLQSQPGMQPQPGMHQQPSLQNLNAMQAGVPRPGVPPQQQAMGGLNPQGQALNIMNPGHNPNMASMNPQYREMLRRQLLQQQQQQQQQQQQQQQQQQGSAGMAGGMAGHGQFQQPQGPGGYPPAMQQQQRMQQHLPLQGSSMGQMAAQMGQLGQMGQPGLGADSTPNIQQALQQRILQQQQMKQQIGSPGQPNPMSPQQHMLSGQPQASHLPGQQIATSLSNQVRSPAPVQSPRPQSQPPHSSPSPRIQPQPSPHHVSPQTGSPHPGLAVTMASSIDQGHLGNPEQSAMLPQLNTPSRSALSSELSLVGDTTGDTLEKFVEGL

Regarding `C[C@H](N(Cc1ccc(F)cc1)C(=O)CN1C(=O)O[C@@]2(CCc3cc(NC(=O)CCCCCCCCCCCNc4ccc5c(c4)C(=O)N(C4CCC(=O)NC4=O)C5=O)ccc32)C1=O)C(F)(F)F` (stereo partly drawn) [CPD 1, 12-((2-(2,6-dioxopiperidin-3-yl)-1,3-dioxoisoindolin-5-yl)amino)-N—((R)-3′-(2-((4-fluorobenzyl)((S)-1,1,1-trifluoropropan-2-yl)amino)-2-oxoethyl)-2′,4′-dioxo-2,3-dihydrospiro[indene-1,5′-oxazolidin]-5-yl)dodecanamide], at CBP (after 48 hour), the CBP degradation entry was “degradation of CBP was observed”. Moreover, the CBP level result on CBP (first 36 hours) is given as “without affecting the CBP level”. Besides, the “growth inhibition compared with A485” value in the series with MM.1S cells is “outperformed inhibitor A485”. Also, the tumor growth inhibition result in the series on NB zebra fish model (NB zebra fish model, 0.25 μM and 0.5 μM) is “tumor growth inhibition”. The “toxicity in zebra fish study” value in the series with NB zebra fish model (zebra fish) is “No toxicity was observed”. The blood samples entry in series [1] (human CRBN knock in mice, after 21 day treatment) was “normal”. Moreover, the toxicity entry in series [1] (humanized CRBN mice) was “no toxicity was observed”.

The values are drawn from US12428412B2 (DANA-FARBER CANCER INSTITUTE, INC., priority 2018, dated 2025).
